Assays:
Format in all cases: biochemical
Conditions in all cases: 200 μg/ml Poly Glu-Tyr (4:1), ATP 1 uM, 90 min room temperature, luminescence
[1] = target: T1, Recombinant JAK1 (Amino acids 850-1154) (Homo sapiens, UniProt P23458); assay: Kinase-Glo Luminescent Kinase Assay, recombinant JAK1
T1 construct: Recombinant JAK1 (Amino acids 850-1154; NM_002227.2); made in house; host or cells: baculovirus expression system (Bac-to-Bac)
Summary of the method: (§1)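 Baculovirus-expressed kinase domains were pre-incubated 5 min with compound (1% DMSO), then reacted 90 min at room temperature with 200 μg/ml poly Glu-Tyr (4:1) and 1 uM ATP in 50 mM HEPES pH 7.4, 5 mM MgCl2. Remaining ATP was read by Kinase-Glo luminescence. IC50 came from four-parameter logistic fits.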

[2] = target: T2, Recombinant JAK2 (Amino acids 808-1132) (Homo sapiens, UniProt O60674); assay: Kinase-Glo Luminescent Kinase Assay, recombinant JAK2
T2 construct: JAK2 (Amino acids 808-1132; NM_004972.3); made in house; host or cells: baculovirus expression system (Bac-to-Bac)
T2 sequence (O60674 808-1132): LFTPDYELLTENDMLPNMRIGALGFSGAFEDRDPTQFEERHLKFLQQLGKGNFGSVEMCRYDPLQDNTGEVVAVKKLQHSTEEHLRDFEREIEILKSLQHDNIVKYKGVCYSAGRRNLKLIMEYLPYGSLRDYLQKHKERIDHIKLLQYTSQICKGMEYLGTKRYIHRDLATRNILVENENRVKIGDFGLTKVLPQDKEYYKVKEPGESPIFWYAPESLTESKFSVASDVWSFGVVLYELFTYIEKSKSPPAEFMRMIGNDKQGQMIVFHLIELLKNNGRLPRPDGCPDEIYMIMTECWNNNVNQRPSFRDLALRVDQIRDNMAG
Summary of the method: as §1

[3] = target: T3, Recombinant JAK3 (Amino acids 781-1124) (Homo sapiens, UniProt P52333); assay: Kinase-Glo Luminescent Kinase Assay, recombinant JAK3
T3 construct: JAK3 (Amino acids 781-1124; NM_000215.3); made in house; host or cells: baculovirus expression system (Bac-to-Bac)
T3 sequence (P52333 781-1124): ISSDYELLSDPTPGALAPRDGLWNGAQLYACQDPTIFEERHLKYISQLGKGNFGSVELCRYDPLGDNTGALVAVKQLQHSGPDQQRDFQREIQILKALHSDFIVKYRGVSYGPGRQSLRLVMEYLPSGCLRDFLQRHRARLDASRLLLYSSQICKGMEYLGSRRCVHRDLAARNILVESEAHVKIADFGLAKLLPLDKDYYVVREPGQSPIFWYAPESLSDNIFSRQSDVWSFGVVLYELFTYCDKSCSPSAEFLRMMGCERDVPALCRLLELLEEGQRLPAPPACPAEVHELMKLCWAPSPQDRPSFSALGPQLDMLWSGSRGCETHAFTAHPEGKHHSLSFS
Summary of the method: as §1

T1 sequence (P23458 850-1154): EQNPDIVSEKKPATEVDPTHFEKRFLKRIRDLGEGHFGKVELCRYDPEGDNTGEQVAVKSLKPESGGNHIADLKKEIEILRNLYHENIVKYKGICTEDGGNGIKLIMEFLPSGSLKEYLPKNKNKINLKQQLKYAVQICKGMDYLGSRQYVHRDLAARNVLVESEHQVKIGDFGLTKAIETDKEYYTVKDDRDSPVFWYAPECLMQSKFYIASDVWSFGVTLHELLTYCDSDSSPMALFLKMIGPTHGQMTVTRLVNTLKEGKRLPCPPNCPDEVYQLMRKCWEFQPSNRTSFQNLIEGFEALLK

SMILES: N#CCS(=O)(=O)N1CCN(c2ccnc3cnc4[nH]ccc4c23)CC1 [Ex. 105, 2-[4-(3H-pyrrolo[3,2-f][1,7]naphthyridin-9-yl)piperazin-1-yl]sulfonylacetonitrile]
- IC50 [1]: 0.001 to 0.02 µM
- IC50 [2]: > 0.02 µM
- IC50 [3]: > 0.02 µM

SMILES: O=C(C1CC1)N1CCCC(c2ncnc3cnc4[nH]ccc4c23)C1 (stereo not drawn) [Ex. 29, Cyclopropyl-[3-(3H-3,4,6,8-tetraaza-cyclopenta[a]naphthalen-9-yl)-piperidin-1-yl]-methanone]
- IC50 [1]: > 0.02 µM
- IC50 [2]: > 0.02 µM
- IC50 [3]: > 0.02 µM

SMILES: O=C(NC1CC1)[C@@H]1CCCN(c2ccnc3cnc4[nH]ccc4c23)C1 [Ex. 61B, (3R)-N-cyclopropyl-1-(3H-pyrrolo[3,2-f][1,7]naphthyridin-9-yl)piperidine-3-carboxamide]
- IC50 [1]: > 0.02 µM
- IC50 [2]: > 0.02 µM
- IC50 [3]: > 0.02 µM

SMILES: O=C(CC(F)(F)F)NC1CCCN(c2ccnc3cnc4[nH]ccc4c23)C1 (stereo not drawn) [Ex. 87, 3,3,3-trifluoro-N-[1-(3H-pyrrolo[3,2-f][1,7]naphthyridin-9-yl)-3-piperidyl] propanamide]
- IC50 [1]: > 0.02 µM
- IC50 [2]: 0.001 to 0.02 µM
- IC50 [3]: > 0.02 µM

SMILES: CS(=O)(=O)N1CCCC(c2ccnc3cnc4[nH]ccc4c23)C1 (stereo not drawn) [Ex. 10, 9-(1-methylsulfonyl-3-piperidyl)-3H-pyrrolo[3,2-f][1,7]naphthyridine]
- IC50 [1]: 0.001 to 0.02 µM
- IC50 [2]: 0.001 to 0.02 µM
- IC50 [3]: 0.001 to 0.02 µM

SMILES: O=S(=O)(C1CC1)N1CCCC(c2ncnc3cnc4[nH]ccc4c23)C1 (stereo not drawn) [Ex. 31, 9-(1-Cyclopropanesulfonyl-piperidin-3-yl)-3H-3,4,6,8-tetraaza-cyclopenta[a]naphthalene]
- IC50 [1]: > 0.02 µM
- IC50 [2]: > 0.02 µM
- IC50 [3]: > 0.02 µM

SMILES: CCC(=O)N1CCCC(c2ncnc3cnc4[nH]ccc4c23)C1 (stereo not drawn) [Ex. 27, 1-[3-(3H-3,4,6,8-Tetraaza-cyclopenta[a]naphthalen-9-yl)-piperidin-1-yl]-propan-1-one]
- IC50 [1]: > 0.02 µM
- IC50 [2]: > 0.02 µM
- IC50 [3]: > 0.02 µM

SMILES: O=C(NC1CC1)C1CCN(c2ccnc3cnc4[nH]ccc4c23)C1 (stereo not drawn) [Ex. 85, N-cyclopropyl-1-(3H-pyrrolo[3,2-f][1,7]naphthyridin-9-yl)pyrrolidine-3-carboxamide]
- IC50 [1]: > 0.02 µM
- IC50 [2]: > 0.02 µM
- IC50 [3]: > 0.02 µM

SMILES: CC(C)/C(=N\C#N)N1CCCC(c2ccnc3cnc4[nH]ccc4c23)C1 (stereo not drawn) [Ex. 43, (E)-[2-methyl-1-[3-(3H-pyrrolo[3,2-f][1,7]naphthyridin-9-yl)-1-piperidyl]propylidene]cyanamide]
- IC50 [1]: > 0.02 µM
- IC50 [2]: 0.001 to 0.02 µM
- IC50 [3]: 0.001 to 0.02 µM

SMILES: CC(C)NC(=O)C1CCCN(c2ccnc3cnc4[nH]ccc4c23)C1 (stereo not drawn) [Ex. 68, N-isopropyl-1-(3H-pyrrolo[3,2-f][1,7]naphthyridin-9-yl)piperidine-3-carboxamide]
- IC50 [1]: > 0.02 µM
- IC50 [2]: > 0.02 µM
- IC50 [3]: > 0.02 µM

SMILES: CCNC(=O)C1CCCN(c2ccnc3cnc4[nH]ccc4c23)C1 (stereo not drawn) [Ex. 72, N-ethyl-1-(3H-pyrrolo[3,2-f][1,7]naphthyridin-9-yl)piperidine-3-carboxamide]
- IC50 [1]: > 0.02 µM
- IC50 [2]: > 0.02 µM
- IC50 [3]: > 0.02 µM

SMILES: CCNC(=O)N1CCCC(c2ccnc3cnc4[nH]ccc4c23)C1 (stereo not drawn) [Ex. 48, N-ethyl-3-(3H-pyrrolo[3,2-f][1,7]naphthyridin-9-yl)piperidine-1-carboxamide]
- IC50 [1]: > 0.02 µM
- IC50 [2]: > 0.02 µM
- IC50 [3]: > 0.02 µM
